Results reported in patent publication US20260232703A1, “USE OF A SYK INHIBITOR FOR THE TREATMENT OF CHEMICAL OR RADIATION INDUCED LUNG INJURY” (Rigel Pharmaceuticals, Inc., priority 2023, published 2026).
Converted amounts (≈) assume the structure as drawn.

Legend:
[1] = Water solubility in aqueous buffer under physiological conditions; assay type: physicochemical
[2] = system: WAG/RijCmcr rats, leg-out PBI irradiated; assay: Leg-out PBI rat model of radiation-induced lung injury (RILI), lung histology; assay type: in vivo; details: 13.5 Gy (female) or 13 Gy (male) leg-out PBI rats; fostamatinib 10 or 20 mg/kg; H&E lung sections, 5-point scale; versus untreated irradiated rats
Text: Irradiation. Leg-out PBI rat models: WAG/RijCmcr female and male rats are unilaterally irradiated, dorsal to ventral, without the use of anesthetics at 11-12 weeks of age. Irradiations are done between 8-10 am. For leg-out PBI, non-anesthetized rats are immobilized in a plastic jig and irradiated using a […] orthovoltage x-ray system (Precision X-Ray, North Branford, Connecticut). […] Doses can range from 13-14.5 Gy for female rats and 12.5-14.5 Gy for males. During irradiation, each rat is confined to a chamber which allows irradiation of 2 rats simultaneously. One hind limb of each rat is carefully externalized from the chamber and shielded with a 0.25-inch lead block. […] Whole mount lung sections (4 μm thick) are stained with hematoxylin and eosin (H&E) and also stained with tryptase antibody (IMGENEX catalogue #IMG-80250, 1:150) (Gao et al. Radiat Res 179: 465-74; 2013. [PubMed: 23480564]) and five randomly selected fields (20×) of each lung are evaluated. The foamy macrophages, vascular, and alveolar wall thickness are scored as described previously (Medhora et al. Radiat Res 182: 545-55; 2014. [PubMed: 25361399]; Medhora et al. J Radiat Res 56: 248-60; 2015. [PubMed: 25368342]); injury is measured on a 5-point scale and a mean composite lung injury score is calculated. Mast cells are assessed by positive tryptase staining in five randomly selected fields (20×) of each lung. […]

| SMILES | solubility [1] | solubility of phosphate prodrug relative to active drug (Compound 1) ([1]; Compound 4 vs Compound 1) | mean composite lung injury score [2] |
| --- | --- | --- | --- |
| COc1cc(Nc2ncc(F)c(Nc3ccc4c(n3)NC(=O)C(C)(C)O4)n2)cc(OC)c1OC [Compound 1, N4-(2,2-Dimethyl-3-oxo-4H-5-pyrid[1,4]oxazin-6-yl)-5-fluoro-N2-(3,4,5-trimethoxyphenyl)-2,4-pyrimidinediamine] | 1 to 2 µg/mL (≈ 2.13 to 4.25 µM) |  |  |
| COc1cc(Nc2ncc(F)c(Nc3ccc4c(n3)N(COP(=O)(O)O)C(=O)C(C)(C)O4)n2)cc(OC)c1OC [Compound 4] | > 5000 µg/mL | approximately 2000 times greater | lower |
